Results reported in paper PMC7481839, “Switchable foldamer ion channels with antibacterial activity” (Chemical Science, 2020).
Where two headings read alike, the source gives them in different places.

Tests used:
[1] = Lucigenin assay of Cl− transport in vesicles; assay type: biochemical; settings: 100 µM compound, interior NaNO3 200 mM, exterior NaCl (2 M), 25°C, first-order curve fit
Protocol: To confirm that chloride could pass through the bilayers, lucigenin assays[5a] were performed for 2, Cu(II)[1]Cl2 and Cu(II)[2]Cl2 (Fig. 5 and ESI, Fig. S10 ^†). The same lipids were used as for the HPTS assays and lucigenin was encapsulated with NaNO3 in the vesicles.
Figure S9: Ionophoric activity determined through an HPTS assay in the presence of NaCl (100 mM) for: 2 (10 µM) in the absence (pink inverted triangles) and presence of FCCP (20 µM, blue triangles) and Cu(II)[2]Cl2 (6 µM) in the absence (red circles) and presence of FCCP (20 µM, black squares). Base pulse at 1 min, TX-100 added at 7 min.
5.4 Preparation of large unilamellar vesicles for lucigenin assays […]
Lucigenin assays procedure and fluorescence normalisation were developed by a modification of published methods.10 An aliquot of the vesicle stock solution (100 μL) w as diluted to 1.9 mL with 200 mM NaNO 3 in water (pH = 7.4) (final lipid co ncentration in cuvette 0.762 mM). […] The cuvette was then placed into a Varian Cary Eclipse fluorescence spectrophotometer in the moderate stirring mode. The fluorescence emission at 505 nm was observed, resulting from excitation at 455 nm, over a period of seven minutes (420 seconds) at 25°C. […] The change in fluorescence was followed for six minutes before final lysis of the vesicles at seven minutes (420 s) by adding an aliquot of a 10 % v/v solution of Triton X-100 […]

[2] = test system: B. megaterium strain DSM319; experiment: Antimicrobial assay: minimum inhibitory concentration (MIC); assay type: cell-based; settings: B. megaterium strain DSM319, LB broth, about 3 × 10^6 CFU/mL, 30 °C overnight, OD 600 nm, compound in DMSO, three biological repeats with three technical repeats
Protocol: The antibiotic activities of 1, 2, Cu(II)[1]Cl2 and Cu(II)[2]Cl2 were measured against B. megaterium strain DSM319 (see the ESI ^†).
Metal ion chelating Aib foldamers 1 and 2 bear a novel amino-terminal copper and nickel (ATCUN) binding motif; other ATCUN motifs are reported to increase antibiotic properties by generating reactive oxygen species upon metal binding.24 Furthermore many copper-containing metallodrugs have been stu died for their anticancer25 and antibiotic properties.26 Introducing the Cu(II)(BPTA) group onto the Aib octamer unit […]
antibiotic studies of long Aib n oligomers (n ≥ 10).15
7.1 Antimicrobial assays: minimum inhibitory concentrations (MIC)
The used procedure was developed by modification of published methods.27 The antimicrobial activity of the appropriate compound was tested against B. megaterium strain DSM319. Bacteria were grown over night at 30 °C in standard lysogeny broth (LB) broth from a single colony overnight. An aliquot from this suspension was taken and diluted (1:100) in fresh LB broth until the suspension reached the mid - logarithmic phase (OD600 = 0.4). […]
The plates were shaken for about 30 seconds and the optical density (OD) was measured at 600 nm.
Afterwards the plates were incubated at 30 °C under aerobic conditions with shaking overnight. The absorbance was then measured at 600 nm using a ClarioStar plate reader. […]

human erythrocytes [3] = settings: in phosphate buffer after 1 h incubation; read-out: reported EC50 for haemolysis; cited from earlier work
Excerpt: Although alamethicin is a very active channel former, its use in the clinic is hampered by its high haemolytic activity.[52]

[4] = cited from earlier work
Excerpt: Application of Hille's equation[47] to estimate the inner channel diameters for both Cu(II)[2]Cl2 and Cu(II)[2]Cl·HCO3 provided approximate pore diameters of 1.5 nm, 2.1 nm and 2.3 nm for the different conductance levels (see the ESI ^†). […] Planar bilayer conductance (PBC) studies Alamethicin provides a useful comparison to the data reported in the manuscript and in the ESI.

human erythrocytes [5] = experiment: Haemolysis assay; assay type: cell-based; settings: fresh blood diluted with PBS (1:2), compound in DMSO, 37 °C for 30 min, triplicates, read-out: EC50 for haemolysis (haemoglobin release)

For alamethicin, the “kobs of Cl− transport (lucigenin assay)” value [1] is given as 0.0073 s⁻¹, the “MIC, minimum inhibitory concentration” value [2] is given as 6 ± 2 µM and the EC50 (human erythrocytes [3]) is given as 1450 nM. The “proposed pore diameter, hexameric pores” value [4] was 1.1 nm, the “proposed pore diameter, octameric pores” value [4] was 1.8 nm and the EC50 (human erythrocytes [5]) was 1400 nM.
